The record followed here is US7829582B2, “Piperidinyl substituted pyrrolidinones as inhibitors of 11-beta-hydroxysteroid dehydrogenase 1” (Eli Lilly and Company, priority 2006, dated 2010).

Usually IC50 stands for the concentration needed to halve the response being measured.

Assay [1] deals with T1, 11β-HSD1 (Mus musculus, UniProt P50172).
T1 construct: tissue Harlan Sprague Dawley; host or cells: whole animal, male C57BL/6 mice; serum cortisol read-out
As to the kind of experiment: Acute in vivo cortisone conversion assay. The conditions noted are these: male C57BL/6 mice, oral dose 10 mg/kg, cortisone challenge 16 hours post dose, serum cortisol by LC-MS/MS. As for the experimental part: Acute In Vivo Cortisone Conversion Assay
In general, compounds are dosed orally into mice, the mice are challenged with a subcutaneous injection of cortisone at a set timepoint after compound injection, and the blood of each animal is collected some time later. Separated serum is then isolated and analyzed for levels of cortisone and cortisol by LC-MS/MS, followed by calculation of mean cortisol and percent inhibition of each dosing group. Specifically, male C57BL/6 mice are obtained from Harlan Sprague Dawley at average weight of 25 grams. Exact weights are taken upon arrival and the mice randomized into groups of similar weights. Compounds are prepared in 1% w-w HEC, 0.25% w-w polysorbate 80, 0.05% w-w Dow Corning antifoam #1510-US at various doses based on assumed average weight of 25 grams. Compounds are dosed orally, 200 μl per animal, followed by a subcutaneous dose, 200 μl per animal, of 30 mg/kg cortisone at 1 to 24 hours post compound dose. At 10 minutes post cortisone challenge, each animal is euthanized for 1 minute in a CO2 chamber, followed by blood collection via cardiac puncture into serum separator tubes. Once fully clotted, tubes are spun at 2500×g, 4° C. for 15 minutes, the serum transferred to wells of 96-well plates (Corning Inc, Costar #4410, cluster tubes, 1.2 ml, polypropylene), and the plates are frozen at −20° C. until analysis by LC-MS/MS. […]

The target of assay [2] is T2, 11β-HSD1 (Homo sapiens, UniProt P28845).
T2 construct: endogenous in cells; host or cells: primary human aortic smooth muscle cells (AoSMC), induced with hTNFα
T2 sequence (P28845 whole entry): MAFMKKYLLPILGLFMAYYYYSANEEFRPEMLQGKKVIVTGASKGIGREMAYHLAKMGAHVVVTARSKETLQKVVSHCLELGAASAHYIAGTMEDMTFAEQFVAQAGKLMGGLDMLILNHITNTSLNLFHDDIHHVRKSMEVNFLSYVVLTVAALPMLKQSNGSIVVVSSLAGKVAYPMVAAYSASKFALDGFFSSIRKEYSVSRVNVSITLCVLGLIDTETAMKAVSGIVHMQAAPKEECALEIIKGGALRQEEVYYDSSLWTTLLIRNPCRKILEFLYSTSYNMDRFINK
As to the kind of experiment: Human aortic smooth muscle cell assay (cortisone to cortisol conversion). Type of assay: cell-based. The conditions noted are these: primary human aortic smooth muscle cells (AoSMC), hTNFα-induced 11β-HSD1, cortisol measured by immunoassay. As for the experimental part:
Human Aortic Smooth Muscle Cell Assay
Primary human aortic smooth muscle cells (AoSMC) are cultured in 5% FBS growth medium to a passage number of 6, then pelleted by centrifugation and resuspended at a density of 9×10^4 cells/mL in 0.5% FBS assay medium containing 12 ng/mL hTNFα to induce expression of 11β-HSD1. Cells are seeded into 96-well tissue culture assay plates at 100 μL/well (9×10^3 cells/well) and incubated for 48 hours at 37° C., 5% CO2. Following induction, cells are incubated for 4 hours at 37° C., 5% CO2 in assay medium containing test compounds then treated with 10 μL/well of 10 μM cortisone solubilized in assay medium, and incubated for 16 hours at 37° C., 5% CO2. Medium from each well is transferred to a plate for subsequent analysis of cortisol using a competitive fluorescence resonance time resolved immunoassay. In solution, an allophycocyanin (APC)-cortisol conjugate and free cortisol analyte compete for binding to a mouse anti-cortisol antibody/Europium (Eu)-anti mouse IgG complex. Higher levels of free cortisol result in diminishing energy transfer from the Europium-IgG to the APC-cortisol complex resulting in less APC fluorescence. Fluorescent intensities for Europium and APC are measured using a LJL Analyst AD. Europium and APC excitation is measured using 360 nm excitation and 615 nm and 650 nm emission filters respectively. Time resolved parameters for Europuium were 1000 μs integration time with a 200 μs delay. APC parameters are set at 150 μs integration time with a 50 μs delay. Fluorescent intensities measured for APC are modified by dividing by the Eu fluorescence (APC/Eu). This ratio is then used to determine the unknown cortisol concentration by interpolation using a cortisol standard curve fitted with a 4-parameter logistic equation. These concentrations are then used to determine compound activity by plotting concentration versus % inhibition, fitting with a 4-parameter curve and reporting the IC50.

T1 sequence (P50172 whole entry): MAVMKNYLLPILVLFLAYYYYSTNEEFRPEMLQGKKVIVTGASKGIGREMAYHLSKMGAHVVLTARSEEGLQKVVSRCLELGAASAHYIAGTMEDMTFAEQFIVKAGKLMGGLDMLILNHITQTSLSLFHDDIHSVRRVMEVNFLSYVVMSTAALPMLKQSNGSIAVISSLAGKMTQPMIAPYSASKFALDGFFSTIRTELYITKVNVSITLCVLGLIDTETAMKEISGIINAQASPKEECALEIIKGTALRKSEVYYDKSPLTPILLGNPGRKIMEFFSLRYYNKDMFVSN

For `CNC(=O)N1CCC(N2CC[C@@H](Cc3c(Cl)cc(-c4ccc(F)cc4)cc3Cl)C2=O)CC1` [Example 6, 4-[(R)-3-(3,5-Dichloro-4′-fluoro-biphenyl-4-ylmethyl)-2-oxo-pyrrolidin-1-yl]-piperidine-1-carboxylic acid methylamide], the “% Inhibition after 16 hours (dose of 10 (mg/kg))” value in assay [1] came to 65%. The same compound registered an IC50 in assay [2] of 73 nM.
As for `COC(=O)N1CCC(N2CC[C@@H](Cc3c(Cl)cc(-c4ccc(F)cc4)cc3Cl)C2=O)CC1` [Example 3, 4-[(R)-3-(3,5-Dichloro-4′-fluoro-biphenyl-4-ylmethyl)-2-oxo-pyrrolidin-1-yl]-piperidine-1-carboxylic acid methyl ester], the IC50 in assay [2] stood at 84.5 nM.
Same read-out and setting: the figure for `O=C(Nc1ccccc1)N1CCC(N2CC[C@@H](Cc3c(Cl)cc(-c4ccc(F)cc4)cc3Cl)C2=O)CC1` [Example 8, 4-[(R)-3-(3,5-Dichloro-4′-fluoro-biphenyl-4-ylmethyl)-2-oxo-pyrrolidin-1-yl]-piperidine-1-carboxylic acid phenylamide] is 159 nM; for `CS(=O)(=O)N1CCC(N2CC[C@@H](Cc3c(Cl)cc(-c4ccc(F)cc4)cc3Cl)C2=O)CC1` [Example 1, (R)-3-(3,5-Dichloro-4′-fluoro-biphenyl-4-ylmethyl)-1-(1-methanesulfonyl-piperidin-4-yl)-pyrrolidin-2-one] it is 85 nM.
`COC(=O)N1CCC(N2CC[C@@H](Cc3c(Cl)cc(-c4ccc(C(=O)N5CCC(C(F)(F)F)CC5)cc4)cc3Cl)C2=O)CC1` [Example 4, 4-{(R)-3-[3,5-Dichloro-4′-(4-trifluoromethyl-piperidine-1-carbonyl)-biphenyl-4-ylmethyl]-2-oxo-pyrrolidin-1-yl}-piperidine-1-carboxylic acid methyl ester]: the “% Inhibition after 16 hours (dose of 10 (mg/kg))” value in assay [1] was 92%. This compound also had an IC50 in assay [2] of 231 nM.
